Laboratory results published in publication PMC4784480 (FEBS letters, 2010).

Target: T1, Type II NADH dehydrogenase (Plasmodium falciparum, UniProt Q8I302)
T1 sequence (Q8I302 24-533): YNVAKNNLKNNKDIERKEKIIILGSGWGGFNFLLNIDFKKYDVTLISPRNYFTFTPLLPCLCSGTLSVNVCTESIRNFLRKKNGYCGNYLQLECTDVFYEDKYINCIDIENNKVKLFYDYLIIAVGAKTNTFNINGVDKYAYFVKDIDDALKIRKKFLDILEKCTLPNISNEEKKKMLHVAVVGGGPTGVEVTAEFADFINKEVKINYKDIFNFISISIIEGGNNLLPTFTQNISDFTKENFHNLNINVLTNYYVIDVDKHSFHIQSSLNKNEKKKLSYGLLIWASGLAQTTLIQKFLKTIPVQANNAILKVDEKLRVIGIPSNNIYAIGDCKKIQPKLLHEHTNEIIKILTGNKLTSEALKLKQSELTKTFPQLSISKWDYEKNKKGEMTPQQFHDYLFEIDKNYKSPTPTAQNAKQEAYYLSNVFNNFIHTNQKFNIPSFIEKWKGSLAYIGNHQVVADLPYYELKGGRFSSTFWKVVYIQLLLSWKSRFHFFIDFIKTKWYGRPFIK
Assay: NADH oxidation at […] nm, parasite cell-free extract
Format: biochemical
Conditions: concentration not given

SMILES | NADH oxidation at 340 nm, parasite cell-free extract (inhibitor of MQ-4-dependent NADH oxidation) | NADH oxidation at 340 nm, parasite cell-free extract (electron acceptor with NADH)
c1ccc2c(c1)[I+]c1ccccc1-2 [DPI, diphenylene iodonium chloride] | sensitive to diphenylene iodonium chloride (DPI), a classical Type II NADH:dehydrogenase inhibitor | 
CCCCCCCCCCC1=C(C)C(=O)C(OC)=C(OC)C1=O [decylubiquinone] |  | Without MQ-4 or decylubiquinone addition no NADH oxidation was observed
